# Results published in ChEMBL document CHEMBL1201862, “PubChem BioAssay data set” (2004).
# Active and inactive are the calls of the source. Cut-off read from the data, not from the text of the source: actives have a measured EC50 and inactives only a lower limit.
# Test system: not listed separately
# Experiment: luciferase reporter signal suppression in cells – H4 neuroglioma cells, luminescence, dose response (AID 1990)
# Assay type: functional, cell-based
row,SMILES,EC50
1,CCOC(=O)c1cccc(NC(=O)/C=C/c2ccc3c(c2)OCO3)c1,2.11 µM (active)
2,CCOc1ccc(CNC(=O)CCCn2nc(C)c3c(C)n(-c4ccc(C)cc4)nc3c2=O)cc1,11.4 µM (active)
3,CC/C(C)=C1\SC(N2CCN(c3cccc(C(F)(F)F)c3)CC2)=NC1=O,19.9 µM (active)
4,COc1cc([C@@H]2c3cc4c(cc3[C@@H](O)[C@@H](CO)[C@@H]2CO)OCO4)cc(OC)c1O[Si](C)(C)C(C)(C)C,15.9 µM (active)
5,CCOc1ccc(NC(=S)N2CCc3cc(OC)c(OC)cc3C2COc2ccc3c(C)cc(=O)oc3c2)cc1 (stereo not given),30.4 µM (active)
6,CCCCN(Cc1cc2cc(OC)ccc2nc1O)S(=O)(=O)c1ccc(C)cc1,16 µM (active)
7,Cc1ccc(C(=O)NCCSc2ccccc2)cc1S(=O)(=O)Nc1ccccc1,29.3 µM (active)
8,O=C(NCC1OCCc2ccccc21)c1ccc(NC(=O)c2ccc(Cl)cc2)cc1 (stereo not given),> 120 µM (not active)

# Test system: not listed separately
# Experiment: Luminescence Cell-Based Dose Response HTS to Identify Activators of Luciferase Translation or Activity in H4 […] Cells. [Related pubchem assays: 1829 (Project Summary), 1814 (Primary HTS)]
# Assay type: functional
row,SMILES,EC50
1,Cc1nc(-c2ccccc2)sc1-c1ccnn1C,0.367 µM (active)

# Test system: Streptococcus sp. 'group A'
# Experiment: Streptococcus pyogenes SK(-)GAS viability under kanamycin – luminescence, BacTiterGlo, confirmation, counter-screen for streptokinase expression inhibitor project, dose response (AID 1900)
# Assay type: functional, organism-based
row,SMILES,EC50
1,O=C(C1CCCCC1)N1CCC(c2nc(O)c3nnn(Cc4c(F)cccc4Cl)c3n2)CC1,4.19 µM (active)
2,Sc1nnc(-c2cc(-c3ccccc3)[nH]n2)n1/N=C/c1ccc(Cl)cc1,18 µM (active)
3,CCOC(=O)c1ccc(Nc2nc(C)nc3c2nnn3Cc2ccccc2)cc1,13.4 µM (active)
4,O=C(COC(=O)Cc1cn2ccsc2n1)Nc1nc2ccccc2s1,2.64 µM (active)
5,Cc1ccc(NNC(=O)C2CCC2)cc1C,> 150 µM (not active)
6,Cc1cc(C(=O)NCC(=O)OC(C(=O)Nc2cc(C(F)(F)F)ccc2Cl)c2ccccc2)ccc1[N+](=O)[O-] (stereo not given),> 150 µM (not active)
7,COc1cccc(NC(=O)NCCCCc2ccccc2)c1,> 150 µM (not active)
8,CCOC(=O)c1sc2nc(Cc3ccc(Cl)cc3)nc(S)c2c1C,4.03 µM (active)
9,CCc1ccccc1N=C(S)NCCSc1ccc(Cl)cc1,19.9 µM (active)

# Test system: not listed separately
# Experiment: Luminescence Cell-Based Dose Response HTS to Identify Inhibitors of 5'UTR Stem-Loop Driven Prion Protein mRNA Translation in H4 Neuroglioblastoma Cells. [Related pubchem assays: 1827 (Project Summary), 1813 (Primary HTS)]
# Assay type: functional
row,SMILES,EC50
1,CCOC(=O)c1cccc(NC(=O)/C=C/c2ccc3c(c2)OCO3)c1,0.361 µM (active)
2,CCOc1ccc(CNC(=O)CCCn2nc(C)c3c(C)n(-c4ccc(C)cc4)nc3c2=O)cc1,> 120 µM (not active)
3,CC/C(C)=C1\SC(N2CCN(c3cccc(C(F)(F)F)c3)CC2)=NC1=O,> 120 µM (not active)
4,COc1cc([C@@H]2c3cc4c(cc3[C@@H](O)[C@@H](CO)[C@@H]2CO)OCO4)cc(OC)c1O[Si](C)(C)C(C)(C)C,39.1 µM (active)
5,CCOc1ccc(NC(=S)N2CCc3cc(OC)c(OC)cc3C2COc2ccc3c(C)cc(=O)oc3c2)cc1 (stereo not given),39.9 µM (active)
6,CCCCN(Cc1cc2cc(OC)ccc2nc1O)S(=O)(=O)c1ccc(C)cc1,11.3 µM (active)
7,Cc1ccc(C(=O)NCCSc2ccccc2)cc1S(=O)(=O)Nc1ccccc1,23.3 µM (active)
8,O=C(NCC1OCCc2ccccc21)c1ccc(NC(=O)c2ccc(Cl)cc2)cc1 (stereo not given),14.2 µM (active)

# Test system: not listed separately
# Experiment: alpha-synuclein stem-loop luciferase translation blockers – H4 neuroglioma cells, luminescence, confirmation (AID 1988)
# Assay type: functional, cell-based
row,SMILES,EC50
1,CCOc1ccc(CNC(=O)CCCn2nc(C)c3c(C)n(-c4ccc(C)cc4)nc3c2=O)cc1,32.2 µM (active)
2,CC/C(C)=C1\SC(N2CCN(c3cccc(C(F)(F)F)c3)CC2)=NC1=O,> 120 µM (not active)
3,COc1cc([C@@H]2c3cc4c(cc3[C@@H](O)[C@@H](CO)[C@@H]2CO)OCO4)cc(OC)c1O[Si](C)(C)C(C)(C)C,11.5 µM (active)
4,CCOc1ccc(NC(=S)N2CCc3cc(OC)c(OC)cc3C2COc2ccc3c(C)cc(=O)oc3c2)cc1 (stereo not given),> 120 µM (not active)
5,CCCCN(Cc1cc2cc(OC)ccc2nc1O)S(=O)(=O)c1ccc(C)cc1,11.1 µM (active)
6,Cc1ccc(C(=O)NCCSc2ccccc2)cc1S(=O)(=O)Nc1ccccc1,> 120 µM (not active)
7,O=C(NCC1OCCc2ccccc21)c1ccc(NC(=O)c2ccc(Cl)cc2)cc1 (stereo not given),12.5 µM (active)

# Molecular target: T1, Streptokinase A (Streptococcus pyogenes serotype M1, UniProt P10520)
# T1 sequence (P10520 whole entry): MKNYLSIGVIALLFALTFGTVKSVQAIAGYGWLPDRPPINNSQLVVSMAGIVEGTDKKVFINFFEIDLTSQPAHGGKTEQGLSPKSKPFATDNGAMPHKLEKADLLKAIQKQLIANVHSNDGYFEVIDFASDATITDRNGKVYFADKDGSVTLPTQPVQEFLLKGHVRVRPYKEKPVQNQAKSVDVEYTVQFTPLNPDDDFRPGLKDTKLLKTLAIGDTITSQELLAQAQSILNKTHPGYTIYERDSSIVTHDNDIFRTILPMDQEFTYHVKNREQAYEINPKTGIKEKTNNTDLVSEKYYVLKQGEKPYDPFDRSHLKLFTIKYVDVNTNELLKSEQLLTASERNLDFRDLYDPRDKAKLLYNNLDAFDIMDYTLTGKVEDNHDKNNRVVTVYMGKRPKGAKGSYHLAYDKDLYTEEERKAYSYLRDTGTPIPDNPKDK
# Experiment: viability-normalized secreted streptokinase activity reduction – plasminogen activation absorbance, OD405, dose response (AID 1914);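 note: secreted streptokinase activity via plasminogen activation per viability signal from cell pellet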
# Assay type: functional, Streptococcus pyogenes M1 GAS
row,SMILES,EC50
1,O=C(C1CCCCC1)N1CCC(c2nc(O)c3nnn(Cc4c(F)cccc4Cl)c3n2)CC1,> 150 µM (not active)
2,CCc1ccccc1NC(=S)NCCSc1ccc(Cl)cc1,30.5 µM (active)
3,Sc1nnc(-c2cc(-c3ccccc3)[nH]n2)n1/N=C/c1ccc(Cl)cc1,> 150 µM (not active)
4,CCOC(=O)c1ccc(Nc2nc(C)nc3c2nnn3Cc2ccccc2)cc1,> 150 µM (not active)
5,O=C(COC(=O)Cc1cn2ccsc2n1)Nc1nc2ccccc2s1,> 150 µM (not active)
6,Cc1ccc(NNC(=O)C2CCC2)cc1C,> 150 µM (not active)
7,Cc1cc(C(=O)NCC(=O)OC(C(=O)Nc2cc(C(F)(F)F)ccc2Cl)c2ccccc2)ccc1[N+](=O)[O-] (stereo not given),> 150 µM (not active)
8,COc1cccc(NC(=O)NCCCCc2ccccc2)c1,106 µM (active)

# Test system: not listed separately
# Experiment: Trypanosoma cruzi growth suppression in host cells – NIH3T3 host cells, beta-gal luminescence, confirmation (AID 2044);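 note: intracellular parasites grown in NIH/3T3 mouse fibroblasts as host cells; luminescent beta-galactosidase reporter signal from transgenic T. cruzi replicating inside host cells; inhibitors lower the luminescence signal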
# Assay type: functional, cell-based
row,SMILES,EC50
1,Cc1cc(C)c2nc(N(CCCN(C)C)C(=O)c3ccc4c(c3)OCCO4)sc2c1,0.5 µM (active)
2,C=CCNC(=S)N/N=C/c1ccc(-c2ccc(Cl)cc2Cl)o1,1.6 µM (active)
3,CN(c1ccc(OCC(=O)Nc2nc(-c3ccccc3)cs2)cc1)S(=O)(=O)c1ccc(F)cc1,1.14 µM (active)
4,O=C(c1cc(-c2ccncc2)nc2ccc(Cl)cc12)N1CCN(Cc2ccc3c(c2)OCO3)CC1,0.152 µM (active)
5,COc1ccc(Cl)cc1N=C(S)N(Cc1cccnc1)Cc1ccco1,0.722 µM (active)

# Test system: not listed separately
# Experiment: NIH3T3 cell viability loss – ATP luminescence, mouse fibroblasts, counter-screen, dose response (AID 2010);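 note: cells exposed to compound for about 90 hours before reading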
# Assay type: functional, cell-based
row,SMILES,EC50
1,Cc1cc(C)c2nc(N(CCCN(C)C)C(=O)c3ccc4c(c3)OCCO4)sc2c1,54.2 µM (active)
2,C=CCNC(=S)N/N=C/c1ccc(-c2ccc(Cl)cc2Cl)o1,> 60 µM (not active)
3,CN(c1ccc(OCC(=O)Nc2nc(-c3ccccc3)cs2)cc1)S(=O)(=O)c1ccc(F)cc1,> 60 µM (not active)
4,O=C(c1cc(-c2ccncc2)nc2ccc(Cl)cc12)N1CCN(Cc2ccc3c(c2)OCO3)CC1,> 60 µM (not active)
5,COc1ccc(Cl)cc1N=C(S)N(Cc1cccnc1)Cc1ccco1,> 60 µM (not active)

# Test system: Streptococcus
# Experiment: GAS UMAA2166 growth inhibition – luminescence, BacTiterGlo, counter-screen for streptokinase expression inhibitor project, dose response (AID 1915);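 note: potency for reduction of bacterial viability or growth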
# Assay type: functional, organism-based
row,SMILES,EC50
1,O=C(C1CCCCC1)N1CCC(c2nc(O)c3nnn(Cc4c(F)cccc4Cl)c3n2)CC1,9.82 µM (active)
2,Sc1nnc(-c2cc(-c3ccccc3)[nH]n2)n1/N=C/c1ccc(Cl)cc1,21.4 µM (active)
3,CCOC(=O)c1ccc(Nc2nc(C)nc3c2nnn3Cc2ccccc2)cc1,> 150 µM (not active)
4,O=C(COC(=O)Cc1cn2ccsc2n1)Nc1nc2ccccc2s1,6.72 µM (active)
5,Cc1ccc(NNC(=O)C2CCC2)cc1C,> 150 µM (not active)
6,Cc1cc(C(=O)NCC(=O)OC(C(=O)Nc2cc(C(F)(F)F)ccc2Cl)c2ccccc2)ccc1[N+](=O)[O-] (stereo not given),> 150 µM (not active)
7,COc1cccc(NC(=O)NCCCCc2ccccc2)c1,> 150 µM (not active)
8,CCOC(=O)c1sc2nc(Cc3ccc(Cl)cc3)nc(S)c2c1C,> 150 µM (not active)
9,CCc1ccccc1N=C(S)NCCSc1ccc(Cl)cc1,> 150 µM (not active)
